Read-outs that look alike come from different tables or passages of the source. Marks after values point to notes of the source that are not given here. Blank lines part the entries; values can stand above or below the compound they belong to.
What was measured:
Nrf2 = Nrf2 signaling fluorescent reporter assay in human retinal epithelial cell line; assay type: cell-based; settings: for minimum inducing concentration (Nrf2): human retinal epithelial cell line
Experimental: The assays were carried out with a fluorescent reporter assay that utilized a human retinal epithelial cell line. The assays also included validation by RT-PCR (reverse transcription polymerase chain reaction) of Nrf2 target genes. The human retinal epithelial cell line was purchased from ATCC (American Type Cell Culture, Manassas, Va.) and was configured to function as a fluorescent reporter assay. Test solutions of each of the alpha lipoic acid, resveratrol, curcumin, EGCG, Olivol®, rutin, quercetin, and hesperetin were prepared by serial dilution. Control solutions were also prepared. Positive control solutions of a known Nrf2 agonist, L-sulphoraphane was also prepared. Each test solution was then assayed for Nrf2 signaling activity using the fluorescent reporter assay and compared to control assays. The positive control solutions were also tested.

[1] = system: C. elegans strain CB5586 worms; test: phenotypic lifespan screening with C. elegans; assay type: in vivo; settings: for anti-ageing activity / effect on chronological lifespan: over the concentrations tested; for population age in days at 25% mortality: DMSO control 11; for population age in days at 50% mortality: DMSO control 14; for population age in days at 75% mortality: DMSO control 16
Experimental: Dilutions of the test formulations were applied to individual populations of C. elegans and the lifespan of each population was monitored. Any changes in the lifespan of an individual population compared to a control population were recorded and correlated to the respective test formulation (N356 or N357) and the respective dilution (0.1 mg/ml, 1 mg/ml, and 10 mg/ml).
The N356 and N357 formulations were each prepared as individual 100 mg/ml stock solutions in dimethyl sulfoxide (DMSO). Serial dilutions of each stock solution were then prepared at 0.1 mg/ml, 1 mg/ml, and 10 mg/ml in DMSO. Control solutions of DMSO only were also prepared. Synchronous aged adult populations of C. elegans strain CB5586 worms were prepared. The CB5586 strain comprises a pharyngeal GFP (green fluorescent protein) tag and a mutation in the bus-5 gene. The pharyngeal GFP tag allows for fluorescent images of the worm populations to be taken. The mutation in the bus-5 gene causes the loss of normal cuticle antigens that permits the cuticle of the worms to become permeable to the test formulations and allow direct uptake of the test formulations to avoid interaction of the test formulations with protective mechanisms of the gut channel. Each serial dilution of each test formulation was added to a separate population of the prepared worms. The control solutions were also added to separate populations of the prepared worms. The populations of the prepared worms were then maintained on standard nematode growth media (NGM) agar plates at 20° C. with sufficient food (Escherichia coli strain OP-50).
Each worm population was then monitored by fluorescent imaging to determine the number of living and dead worms as a function of time. The fluorescent imaging was analyzed by software that recognized and counted worms based on their fluorescent intensity compared to background fluorescence. […] The ability to distinguish between living and dead worms allowed the number of living worms and cumulative number of dead worms to be monitored against time. Worm populations from a selection of fluorescent images were manually checked to verify that the software had accurately counted the number of living and dead worms.
The counts of the living and dead worms as a function of time were then analyzed for each of the worm populations and used to prepare Kaplan-Meier survival curves and associated statistics for each of the worm populations. […] The median lifespan is shown as the length of time after the last mitotic division that 50% of the test population remains viable when compared to the control population. The maximum lifespan extension is shown as the length of time after the last mitotic division that 5% of the test population remains viable when compared to the control population.
The counts of the living and dead worms as a function of time and the Kaplan-Meier survival curves and the associated statistics were then analyzed for each of the worm populations. The analysis included determining mean and median lifespan. The analysis included a non-parametric test, the Log-Rank test, which compares two survival functions for the overall lifespan assay and provides a reliable p-value summarizing the whole experiment. The analysis also included Fisher's Exact Test that calculated the significance of survival function comparisons at multiple specific time points throughout the experiment, rather than for the overall lifespan. The results of the analysis are shown below in Tables 10-17. […]

human Nrf2 = test: Nrf2 reporter assay, agonist mode (native receptor, ARE-luciferase, CV1); assay type: cell-based; settings: for agonist activity against human Nrf2: at the concentrations tested
[2] = system: NF-κB reporter cells (HEK293); settings: human, 24 h
[3] = at 10 μM and 1 (unit not given)
[4] = 10 mg/ml, compared to DMSO control
[5] = 0.1 mg/ml, compared to DMSO control

agonist activity against human Nrf2 (human Nrf2): low-level agonist activity | NF-κB % Live Cell ([2]; 23 μg/ml): 97% | NF-κB % Live Cell ([2]; 68 μg/ml): 77*** %
SMILES: O=c1c(O)c(-c2ccc(O)c(O)c2)oc2cc(O)cc(O)c12 [Quercetin, 2-(3,4-dihydroxyphenyl)-3,5,7-trihydroxy-4H-chromen-4-one]
concentration giving more Nrf2 activation (Nrf2; 10 μM compared with 1 μM): more activation at the 1 μM concentration | activation of Nrf2 against a control (Nrf2; [3]): demonstrated activation of Nrf2 | minimum inducing concentration (Nrf2) (Nrf2): 0.55 µM | Statistically Significant Result [1, 4]: No statistical difference | anti-ageing activity / effect on chronological lifespan [1]: significant negative effect on chronological lifespan

NF-κB % Live Cell ([2]; 1.11 μg/ml): 99% | NF-κB % Live Cell ([2]; 3.3 μg/ml): 98% | NF-κB % Live Cell ([2]; 30 μg/ml): 97%
SMILES: C[C@@H]1O[C@@H](OC[C@H]2O[C@@H](Oc3c(-c4ccc(O)c(O)c4)oc4cc(O)cc(O)c4c3=O)[C@H](O)[C@@H](O)[C@@H]2O)[C@H](O)[C@H](O)[C@H]1O [Rutin, quercetin-3-O-rutinoside]

NF-κB % Live Cell ([2]; 0.28 μg/ml): 100% | NF-κB % Live Cell ([2]; 0.85 μg/ml): 100% | NF-κB % Live Cell ([2]; 1.81 μg/ml): 99%
SMILES: Oc1ccc(/C=C/c2cc(O)cc(O)c2)cc1 [Resveratrol, 3,5,4′-trihydroxy-trans-stilbene]
activation of Nrf2 against a control (Nrf2; [3]): demonstrated activation of Nrf2 | Statistically Significant Result [1, 5]: No statistical difference | anti-ageing activity / effect on chronological lifespan [1]: significant positive and dose dependent increase of chronological lifespan

NF-κB % Live Cell ([2]; 0.043 μg/ml): 98% | NF-κB % Live Cell ([2]; 0.389 μg/ml): 99% | NF-κB % Live Cell ([2]; 1.167 μg/ml): 98% | NF-κB % Live Cell ([2]; 3.5 μg/ml): 96%
SMILES: COc1ccc([C@@H]2CC(=O)c3c(O)cc(O)cc3O2)cc1O [Hesperetin, (S)-2,3-Dihydro-5,7-dihydroxy-2-(3-hydroxy-4-methoxyphenyl)-4H-1-benzopyran-4-one]
Nrf2 Fold-Activation (human Nrf2; 0.043 μg/ml active ingredient): 1.4 fold | Nrf2 Fold-Activation (human Nrf2; 0.389 μg/ml active ingredient): 1.3 fold | Nrf2 Fold-Activation (human Nrf2; 1.167 μg/ml active ingredient): 1.5 fold | Nrf2 Fold-Activation (human Nrf2; 3.5 μg/ml active ingredient): 0.94 fold

Second part, the compound before the results:

SMILES: O=C(O)CCCCC1CCSS1 (racemic) [Alpha lipoic acid, alpha lipoic acid]
activation of Nrf2 against a control (Nrf2; at 100 μM and 30 (unit not given)): demonstrated activation of Nrf2 | minimum inducing concentration (Nrf2) (Nrf2): 1.75 µM | anti-ageing activity / effect on chronological lifespan [1]: significant positive and dose dependent increase of chronological lifespan | Nrf2 Fold-Activation (human Nrf2; 1.42 μg/ml active ingredient): 1.4 fold | Nrf2 Fold-Activation (human Nrf2; 4.25 μg/ml active ingredient): 1.4 fold | Nrf2 Fold-Activation (human Nrf2; 12.7 μg/ml active ingredient): 1.5 fold | Nrf2 Fold-Activation (human Nrf2; 38.23 μg/ml active ingredient): 1.5 fold | Nrf2 Fold-Activation (human Nrf2; 114.70 μg/ml active ingredient): 2.4 fold | agonist activity against human Nrf2 (human Nrf2): very low-level agonist activity | NF-κB % Live Cell ([2]; 1.42 μg/ml): 100%

SMILES: COc1cc(/C=C/C(=O)CC(=O)/C=C/c2ccc(O)c(OC)c2)ccc1O [Curcumin, curcumin]
Nrf2 Fold-Activation (human Nrf2; 0.007 μg/ml active ingredient): 1.6 fold | Nrf2 Fold-Activation (human Nrf2; 0.022 μg/ml active ingredient): 1.7 fold | Nrf2 Fold-Activation (human Nrf2; 0.067 μg/ml active ingredient): 1.4 fold | Nrf2 Fold-Activation (human Nrf2; 0.20 μg/ml active ingredient): 0.96 fold | Nrf2 Fold-Activation (human Nrf2; 0.60 μg/ml active ingredient): 1.0 fold | Nrf2 Fold-Activation (human Nrf2; 1.81 μg/ml active ingredient): 1.6 fold | NF-κB % Live Cell ([2]; 0.6 μg/ml): 99% | NF-κB % Live Cell ([2]; 1.81 μg/ml): 97%

SMILES: COc1ccc([C@@H]2CC(=O)c3c(O)cc(O[C@@H]4O[C@H](CO[C@@H]5O[C@@H](C)[C@H](O)[C@@H](O)[C@H]5O)[C@@H](O)[C@H](O)[C@H]4O)cc3O2)cc1O [N347, Hesperidin]
% Change in Mean Lifespan [1, 5]: +10% | extension of lifespan ([1]; 0.1 mg/ml, vs DMSO control): about 10% | population age in days at 25% mortality ([1]; 0.1 mg/ml): 11 days | population age in days at 50% mortality ([1]; 0.1 mg/ml): 16 days | population age in days at 75% mortality ([1]; 0.1 mg/ml): 18 days | Statistically Significant Result [1, 4]: No statistical difference | population age in days at 25% mortality ([1]; 10 mg/ml): 11 days | population age in days at 50% mortality ([1]; 10 mg/ml): 14 days | population age in days at 75% mortality ([1]; 10 mg/ml): 18 days | anti-ageing activity / effect on chronological lifespan [1]: significant positive and dose dependent increase of chronological lifespan
